{"source": "paper PMC7367283", "about": "“A PIP2 substitute mediates voltage sensor-pore coupling in KCNQ activation” (Communications Biology, 2020)", "target": "pseudo wild-type KCNQ1 (with mutations C214A/G219C/C331A) (Homo sapiens, UniProt P51787, C214A/C331A/G219C)", "experiment": "Voltage-clamp fluorometry (VCF) of pseudo WT KCNQ1 in Xenopus oocytes", "type": "cell-based", "conditions": "for G/Gmax Mean: Fig. 3g; for F/Fmax Mean: Fig. 3i", "description": "We employed voltage-clamp fluorometry (VCF) to measure the effects of CP1 on voltage-sensor activation. The emission (F) of Alexa 488 C5 maleimide attached to the S3–S4 linker, at residue C219, of the pseudo wild-type KCNQ1 (with mutations C214A/G219C/C331A) reported VSD movements in response to voltage changes, while the ionic current reported pore opening[45] (Fig. 3f, h). Similar to the WT KCNQ1, the G–V relation of the pseudo WT KCNQ1 shifted to negative voltages by −53.3 ± 3.1 mV in the presence of 10 µM CP1 (Fig. 3g). […] However, the F–V relationship shifted only by −17.3 ± 3.6 mV. […] (Supplementary Fig. 3). […] It is also apparent that at extreme negative voltages ≤ −130 mV, where the voltage sensor seemed not activated (F ~ 0, Fig. 3i), a fraction of the channels was constitutively open (G > 0, Fig. 3b, g).\nOocytes were labeled on ice for 45 min with 10 μM Alexa 488 C5 maleimide (Molecular Probes, Eugene, OR) in high K^+ solution (in mM: 98 KCl, 1.8 CaCl2, and 5 HEPES, pH 7.6). Then the cells were washed with ND96 solution and kept on ice until recording. A CA-1B amplifier was used to record whole-oocyte currents in ND96 solution. Fluorescent signals were recorded simultaneously using a Pin20A photodiode (OSI Optoelectronics, CA), filtered using a FITC filter cube (Leica, Germany, for Alexa 488), and then amplified using a patch-clamp amplifier (EPC10, HEKA, Germany).", "data": [{"molecule": "O=S(=O)([O-])Oc1c(-c2sc3c(ccc4cccc(Cl)c43)c2OS(=O)(=O)[O-])[nH]c2ccc(Br)cc12.[Na+].[Na+]", "note": "[CP1, DISODIUM 5-BROMO-2-[9-CHLORO-3-(SULFONATOOXY) NAPHTHO [1,2-B] THIEN-2-YL]-1H-INDOL-3-YL SULFATE]", "values": [{"measurement": "shift of F–V relationship (VSD activation)", "setting": "10 µM CP1", "value": "−17.3 ± 3.6", "unit": "mV"}, {"measurement": "shift of G–V relation", "setting": "10 µM CP1", "value": "−53.3 ± 3.1", "unit": "mV"}, {"measurement": "G/Gmax Mean", "setting": "10 µM CP1, 0 mV", "value": 0.7707}, {"measurement": "G/Gmax Mean", "setting": "10 µM CP1, 10 mV", "value": 0.7200}, {"measurement": "G/Gmax Mean", "setting": "10 µM CP1, 20 mV", "value": 0.6664}, {"measurement": "G/Gmax Mean", "setting": "10 µM CP1, 40 mV", "value": 0.5879}, {"measurement": "G/Gmax Mean", "setting": "10 µM CP1, -10 mV", "value": 0.8231}, {"measurement": "G/Gmax Mean", "setting": "10 µM CP1, -20 mV", "value": 0.8668}, {"measurement": "G/Gmax Mean", "setting": "10 µM CP1, -30 mV", "value": 0.9194}, {"measurement": "G/Gmax Mean", "setting": "10 µM CP1, -40 mV", "value": 0.9570}, {"measurement": "G/Gmax Mean", "setting": "10 µM CP1, -50 mV", "value": 0.9837}, {"measurement": "G/Gmax Mean", "setting": "10 µM CP1, -60 mV", "value": 1.0000}, {"measurement": "G/Gmax Mean", "setting": "10 µM CP1, -70 mV", "value": 0.9888}, {"measurement": "G/Gmax Mean", "setting": "10 µM CP1, -80 mV", "value": 0.9295}, {"measurement": "G/Gmax Mean", "setting": "10 µM CP1, -90 mV", "value": 0.8170}, {"measurement": "G/Gmax Mean", "setting": "10 µM CP1, -100 mV", "value": 0.6596}, {"measurement": "G/Gmax Mean", "setting": "10 µM CP1, -110 mV", "value": 0.4846}, {"measurement": "G/Gmax Mean", "setting": "10 µM CP1, -120 mV", "value": 0.3240}, {"measurement": "G/Gmax Mean", "setting": "10 µM CP1, -130 mV", "value": 0.2412}, {"measurement": "G/Gmax Mean", "setting": "10 µM CP1, -140 mV", "value": 0.1631}, {"measurement": "F/Fmax Mean", "setting": "10 µM CP1, 0 mV", "value": 0.9059}, {"measurement": "F/Fmax Mean", "setting": "10 µM CP1, 10 mV", "value": 0.9298}, {"measurement": "F/Fmax Mean", "setting": "10 µM CP1, 20 mV", "value": 0.9639}, {"measurement": "F/Fmax Mean", "setting": "10 µM CP1, 30 mV", "value": 0.9526}, {"measurement": "F/Fmax Mean", "setting": "10 µM CP1, 40 mV", "value": 1.0000}, {"measurement": "F/Fmax Mean", "setting": "10 µM CP1, -10 mV", "value": 0.8465}, {"measurement": "F/Fmax Mean", "setting": "10 µM CP1, -20 mV", "value": 0.8444}, {"measurement": "F/Fmax Mean", "setting": "10 µM CP1, -30 mV", "value": 0.7943}, {"measurement": "F/Fmax Mean", "setting": "10 µM CP1, -40 mV", "value": 0.7337}, {"measurement": "F/Fmax Mean", "setting": "10 µM CP1, -50 mV", "value": 0.6357}, {"measurement": "F/Fmax Mean", "setting": "10 µM CP1, -60 mV", "value": 0.5712}, {"measurement": "F/Fmax Mean", "setting": "10 µM CP1, -70 mV", "value": 0.4588}, {"measurement": "F/Fmax Mean", "setting": "10 µM CP1, -80 mV", "value": 0.4066}, {"measurement": "F/Fmax Mean", "setting": "10 µM CP1, -90 mV", "value": 0.2751}, {"measurement": "F/Fmax Mean", "setting": "10 µM CP1, -100 mV", "value": 0.1745}, {"measurement": "F/Fmax Mean", "setting": "10 µM CP1, -110 mV", "value": 0.1186}, {"measurement": "F/Fmax Mean", "setting": "10 µM CP1, -120 mV", "value": 0.0457}, {"measurement": "F/Fmax Mean", "setting": "10 µM CP1, -130 mV", "value": 0.0520}, {"measurement": "F/Fmax Mean", "setting": "10 µM CP1, -140 mV", "value": 0.0265}]}]}
